# Results published in ChEMBL document CHEMBL3885881, “DrugMatrix”.
# Species on record: Rattus norvegicus
# Assay: DrugMatrix - Regimen: Daily Repeat
# Format: toxicity, organism-based, Sprague-Dawley
# Set-up: regimen Daily Repeat, gender Male, age 6-8 weeks
# Details: in vivo, po, […], route oral GAVAGE, dose 4.6 mg/Kg, dose level High, vehicle .5 % CMC; for BASOPHIL / EOSINOPHIL / ERYTHROCYTE COUNT / HEMATOCRIT / HEMOGLOBIN / LEUKOCYTE COUNT / LYMPHOCYTE / MEAN CORPUSCULAR HEMOGLOBIN / MEAN CORPUSCULAR HEMOGLOBIN CONCENTRATION / MEAN CORPUSCULAR VOLUME / MONOCYTE / NEUTROPHIL / PLATELET COUNT: tissue Blood; for ALANINE AMINOTRANSFERASE / ALBUMIN / ALKALINE PHOSPHATASE / ASPARTATE AMINOTRANSFERASE / BLOOD UREA NITROGEN / CARBON DIOXIDE / CHLORIDE / CHOLESTEROL / CREATINE PHOSPHOKINASE / CREATININE / GLUCOSE / LACTATE DEHYDROGENASE / LIPASE / PHOSPHORUS / POTASSIUM / SODIUM / TOTAL BILIRUBIN / TOTAL PROTEIN / URIC ACID: tissue Plasma
smiles,measurement,setting,value
COc1ccc(C(=O)Nc2c(Cl)c[n+]([O-])cc2Cl)c2ccc(C(F)(F)F)nc12 [SCH-351591],BASOPHIL,"96 h, time 4 day",0.27%
same,EOSINOPHIL,"96 h, time 4 day",1.13%
same,ERYTHROCYTE COUNT,"96 h, time 4 day",6.53 x10E6/uL
same,HEMATOCRIT,"96 h, time 4 day",40.97%
same,HEMOGLOBIN,"96 h, time 4 day",13.13 G/DL
same,LEUKOCYTE COUNT,"96 h, time 4 day",18.12 x10E3/uL
same,LYMPHOCYTE,"96 h, time 4 day",79.83%
same,MEAN CORPUSCULAR HEMOGLOBIN,"96 h, time 4 day",20.13 pg
same,MEAN CORPUSCULAR HEMOGLOBIN CONCENTRATION,"96 h, time 4 day",32.1 G/DL
same,MEAN CORPUSCULAR VOLUME,"96 h, time 4 day",62.73 fL
same,MONOCYTE,"96 h, time 4 day",2.33%
same,NEUTROPHIL,"96 h, time 4 day",15.77%
same,PLATELET COUNT,"96 h, time 4 day",1324.67 x10E3/uL
same,ALANINE AMINOTRANSFERASE,"96 h, time 4 day",40.33 u/L
same,ALBUMIN,"96 h, time 4 day",3.93 G/DL
same,ALKALINE PHOSPHATASE,"96 h, time 4 day",341 u/L
same,ASPARTATE AMINOTRANSFERASE,"96 h, time 4 day",77 u/L
same,BLOOD UREA NITROGEN,"96 h, time 4 day",21.33 mg/dL
same,CARBON DIOXIDE,"96 h, time 4 day",23.33 mmol/L
same,CHLORIDE,"96 h, time 4 day",105 MEQ/L
same,CHOLESTEROL,"96 h, time 4 day",88 mg/dL
same,CREATINE PHOSPHOKINASE,"96 h, time 4 day",540.67 u/L
same,CREATININE,"96 h, time 4 day",0.4 mg/dL
same,GLUCOSE,"96 h, time 4 day",177 mg/dL
same,LACTATE DEHYDROGENASE,"96 h, time 4 day",256 u/L
same,LIPASE,"96 h, time 4 day",18 u/L
same,PHOSPHORUS,"96 h, time 4 day",12.67 mg/dL
same,POTASSIUM,"96 h, time 4 day",6.37 MEQ/L
same,SODIUM,"96 h, time 4 day",146.33 MEQ/L
same,TOTAL BILIRUBIN,"96 h, time 4 day",0.37 mg/dL
same,TOTAL PROTEIN,"96 h, time 4 day",6.23 G/DL
same,URIC ACID,"96 h, time 4 day",1.67 mg/dL
same,BASOPHIL,time 6 day,0.33%
same,EOSINOPHIL,time 6 day,0.37%
same,ERYTHROCYTE COUNT,time 6 day,7.26 x10E6/uL
same,HEMATOCRIT,time 6 day,48.6%
same,HEMOGLOBIN,time 6 day,14.77 G/DL
same,LEUKOCYTE COUNT,time 6 day,20.98 x10E3/uL
same,LYMPHOCYTE,time 6 day,75.93%
same,MEAN CORPUSCULAR HEMOGLOBIN,time 6 day,20.37 pg
same,MEAN CORPUSCULAR HEMOGLOBIN CONCENTRATION,time 6 day,30.33 G/DL
same,MEAN CORPUSCULAR VOLUME,time 6 day,67.07 fL
same,MONOCYTE,time 6 day,2.13%
same,NEUTROPHIL,time 6 day,19.93%
same,PLATELET COUNT,time 6 day,1217.67 x10E3/uL
same,BASOPHIL,time 14 day,0.38%
same,EOSINOPHIL,time 14 day,0.52%
same,ERYTHROCYTE COUNT,time 14 day,7.4 x10E6/uL
same,HEMATOCRIT,time 14 day,46.48%
same,HEMOGLOBIN,time 14 day,14.82 G/DL
same,LEUKOCYTE COUNT,time 14 day,23.35 x10E3/uL
same,LYMPHOCYTE,time 14 day,67.1%
same,MEAN CORPUSCULAR HEMOGLOBIN,time 14 day,20.06 pg
same,MEAN CORPUSCULAR HEMOGLOBIN CONCENTRATION,time 14 day,31.86 G/DL
same,MEAN CORPUSCULAR VOLUME,time 14 day,62.92 fL
same,MONOCYTE,time 14 day,1.96%
same,NEUTROPHIL,time 14 day,28.36%
same,PLATELET COUNT,time 14 day,1247.4 x10E3/uL
same,ALANINE AMINOTRANSFERASE,time 6 day,24.33 u/L
same,ALBUMIN,time 6 day,3.9 G/DL
same,ALKALINE PHOSPHATASE,time 6 day,313.33 u/L
same,ASPARTATE AMINOTRANSFERASE,time 6 day,61.33 u/L
same,BLOOD UREA NITROGEN,time 6 day,17.67 mg/dL
same,CARBON DIOXIDE,time 6 day,25.67 mmol/L
same,CHLORIDE,time 6 day,108.33 MEQ/L
same,CHOLESTEROL,time 6 day,80.67 mg/dL
same,CREATINE PHOSPHOKINASE,time 6 day,190.33 u/L
same,CREATININE,time 6 day,0.47 mg/dL
same,GLUCOSE,time 6 day,161 mg/dL
same,LACTATE DEHYDROGENASE,time 6 day,82 u/L
same,LIPASE,time 6 day,43.33 u/L
same,PHOSPHORUS,time 6 day,12.93 mg/dL
same,POTASSIUM,time 6 day,6.5 MEQ/L
same,SODIUM,time 6 day,149.33 MEQ/L
same,TOTAL BILIRUBIN,time 6 day,0.43 mg/dL
same,TOTAL PROTEIN,time 6 day,6.13 G/DL
same,URIC ACID,time 6 day,1.47 mg/dL
same,ALANINE AMINOTRANSFERASE,time 14 day,34.6 u/L
same,ALBUMIN,time 14 day,3.96 G/DL
same,ALKALINE PHOSPHATASE,time 14 day,330.4 u/L
same,ASPARTATE AMINOTRANSFERASE,time 14 day,65.6 u/L
same,BLOOD UREA NITROGEN,time 14 day,21 mg/dL
same,CARBON DIOXIDE,time 14 day,26.2 mmol/L
same,CHLORIDE,time 14 day,106.4 MEQ/L
same,CHOLESTEROL,time 14 day,70 mg/dL
same,CREATINE PHOSPHOKINASE,time 14 day,225.2 u/L
same,CREATININE,time 14 day,0.48 mg/dL
same,GLUCOSE,time 14 day,157.4 mg/dL
same,LACTATE DEHYDROGENASE,time 14 day,185.6 u/L
same,LIPASE,time 14 day,29.2 u/L
same,PHOSPHORUS,time 14 day,11.86 mg/dL
same,POTASSIUM,time 14 day,6.36 MEQ/L
same,SODIUM,time 14 day,149.8 MEQ/L
same,TOTAL BILIRUBIN,time 14 day,0.38 mg/dL
same,TOTAL PROTEIN,time 14 day,6.36 G/DL
same,URIC ACID,time 14 day,1.84 mg/dL
